The numbers were not newly measured in patent US20100151037A1, “METHOD FOR THE PREPARATION OF NANOPARTICLES CONTAINING A POORLY WATER-SOLUBLE […] ACTIVE COMPOUND” (priority 2008, published 2010), which cites them from elsewhere.

Structures are written as SMILES.

For the data set the following is noted: dry powder form.

In the case of `COC1=C(OC)C(=O)C(C/C=C(\C)CC/C=C(\C)CC/C=C(\C)CC/C=C(\C)CC/C=C(\C)CC/C=C(\C)CC/C=C(\C)CC/C=C(\C)CC/C=C(\C)CCC=C(C)C)=C(C)C1=O` [Coenzyme Q10], the bioavailability entry was “as low as three percent”.
